In ChEMBL document CHEMBL1806427, “Pyridine-derived γ-secretase modulators” (Bioorg Med Chem Lett, 2011):
Activity calls are given as the source filed them. No cut-off for these calls is given here.

Columns and labels:
Gamma-secretase [1] = assay: Inhibition of gamma-secretase in human SHSY5Y cells expressing human recombinant Swedish variant of APP K595N/M596L assessed as reduction of amyloid beta42 level after 48 hrs by AlphaLISA assay; assay type: cell-based; details: sh-sy5y
Gamma-secretase [2] = assay: Inhibition of gamma-secretase in human SHSY5Y cells expressing human recombinant Swedish variant of APP K595N/M596L assessed as reduction of amyloid beta40 level after 48 hrs by AlphaLISA assay; assay type: cell-based; details: sh-sy5y
[3] = Inhibition of gamma-secretase expressed in african green monkey CV1 cells co-expressing Gal4 DNA-binding/transactivation domain assessed as inhibition of notch processing after 22 hrs by luciferase reporter assay; assay type: cell-based; details: CV-1, 22 h
SH-SY5Y = assay: Toxicity in human SH-SY5Y cells assessed as cell viability up to 3 uM by WST-1 assay; assay type: cell-based
Blood = assay: Drug level in Sprague-Dawley rat blood at 30 mg/kg, po; assay type: ADME, organism-based; set-up: dose 30 mg/kg, route oral; details: in vivo, read-out: Drug uptake
Brain = assay: Drug level in Sprague-Dawley rat brain at 30 mg/kg, po; assay type: ADME, organism-based; set-up: dose 30 mg/kg, route oral; details: in vivo, read-out: Drug uptake
[4] = Ratio of drug level in brain to blood in Sprague-Dawley rat at 30 mg/kg, po; assay type: ADME, organism-based; set-up: dose 30 mg/kg, route oral; details: brain/whole blood, read-out: BBR
Rattus norvegicus [5] = assay: Antialzheimer activity in Sprague-Dawley rat assessed as reduction of amyloid beta42 level in brain at 30 mg/kg/day, po for 5 days measured 6 hrs after last dose; assay type: functional; set-up: scale not given: the % may be the effect or the level left
[6] = Drug level in Sprague-Dawley rat brain at 30 mg/kg/day, po for 5 days measured 6 hrs after last dose; assay type: ADME, organism-based; set-up: route oral; details: read-out: Drug uptake
Rattus norvegicus [7] = assay: Toxicity in Sprague-Dawley rat assessed as effect on Notch-mediated Hes-1 mRNA level in ileum at 30 mg/kg/day, po for 5 days measured 6 hrs after last dose; assay type: organism-based; set-up: route oral; details: in vivo
Rattus norvegicus [8] = assay: Toxicity in Sprague-Dawley rat assessed as effect on Notch-mediated CD4 level in thymocytes at 30 mg/kg/day, po for 5 days measured 6 hrs after last dose; assay type: organism-based; set-up: route oral; details: in vivo
Rattus norvegicus [9] = assay: Toxicity in Sprague-Dawley rat assessed as effect on Notch-mediated CD8 level in thymocytes at 30 mg/kg/day, po for 5 days measured 6 hrs after last dose; assay type: organism-based; set-up: route oral; details: in vivo
[10] = biological target: T1, Gamma-secretase (Homo sapiens) (UniProt Q96BI3+Q9NZ42+Q8WW43+P49768+Q92542+P49810); assay: Inhibition of gamma-secretase in human SHSY5Y cells expressing human recombinant Swedish variant of APP K595N/M596L assessed as reduction of amyloid beta42 level after 24 hrs by DELFIA assay; assay type: cell-based; details: SH-SY5Y
[11] = biological target: T1, Gamma-secretase (Homo sapiens); assay: Inhibition of gamma-secretase in human SHSY5Y cells expressing human recombinant Swedish variant of APP K595N/M596L assessed as reduction of amyloid beta40 level after 24 hrs by DELFIA assay; assay type: cell-based; details: SH-SY5Y
[12] = biological target: T1, Gamma-secretase (Homo sapiens); assay: Inhibition of gamma-secretase in human SHSY5Y cells expressing human recombinant Swedish variant of APP K595N/M596L assessed as increase of total amyloid beta level after 24 hrs by DELFIA assay; assay type: cell-based; details: SH-SY5Y
[13] = Blood clearance in Sprague-Dawley rat at 1 mg/kg, iv and 2 mg/kg, po; assay type: ADME, organism-based; details: whole blood
[14] = Volume of distribution at steady state in Sprague-Dawley rat at 1 mg/kg, iv and 2 mg/kg, po; assay type: ADME, organism-based; details: in vivo, read-out: Vdss
[15] = Half life in Sprague-Dawley rat at 1 mg/kg, iv and 2 mg/kg, po; assay type: ADME, organism-based; details: in vivo
[16] = Oral bioavailability in Sprague-Dawley rat at 2 mg/kg; assay type: ADME, organism-based; details: in vivo

Cc1cn(-c2ccc(-c3ccc(N[C@@H](C)c4ccc(F)cc4)nc3)cc2-c2ccccc2)cn1 gave a pIC50 (Gamma-secretase [1]) of 4.8 and a pIC50 (Gamma-secretase [2]) of 5.
In the case of COc1cc(-c2ccc(N[C@@H](C)c3ccc(F)cc3)nc2)ccc1-n1cnc(C)c1 [listing 1 of 2 here], the pIC50 (Gamma-secretase [1]) is reported as 6.9, the pIC50 (Gamma-secretase [2]) is reported as 6.1 and the IC50 [3] is reported as 10 µM. The Activity (SH-SY5Y) was “Non-toxic”, the concentration (Blood) was 4.98 µM and the concentration (Brain) was 8.75 µM. It also gave a Kp [4] of 1.74, an Activity (Rattus norvegicus [5]) of 27.6% and a concentration at 6 h [6] of 8.86 µM. For the same molecule, the Activity (Rattus norvegicus [7]) was “Non-toxic”, the Activity (Rattus norvegicus [8]) was “Non-toxic” and the Activity (Rattus norvegicus [9]) was “Non-toxic”.
In the case of CNC(=O)c1cc(-c2ccc(N[C@@H](C)c3ccc(F)cc3)nc2)ccc1-n1cnc(C)c1, the pIC50 (Gamma-secretase [1]) is reported as less than 4 and the pIC50 (Gamma-secretase [2]) is reported as less than 4.
Work on COc1cc(-c2nnc(N[C@@H](C)c3ccc(F)cc3)s2)ccc1-n1cnc(C)c1 yielded a pIC50 (Gamma-secretase [1]) of 7.1 and a pIC50 (Gamma-secretase [2]) of 6.2.
In the case of COc1cc(-c2cnc(N[C@@H](C)c3ccc(F)cc3)nc2)ccc1-n1cnc(C)c1, the pIC50 (Gamma-secretase [1]) is reported as 6.7, the pIC50 (Gamma-secretase [2]) is reported as 6 and the IC50 [3] is reported as 10 µM.
For COc1cc(-c2ccc(N[C@@H](C)c3ccc(F)cc3)nc2)ccc1-n1cnc(C)c1 [listing 2 of 2 here], the inhibition [10] was “Dose-dependent effect”, the inhibition [11] was “Dose-dependent effect” and the inhibition [12] was “Active”.
For Cc1cn(-c2ccc(-c3ccc(N[C@@H](C)c4ccc(F)cc4)nc3)cc2OC(C)C)cn1, the pIC50 (Gamma-secretase [1]) was 5.5 and the pIC50 (Gamma-secretase [2]) was 5.1.
Cc1cn(-c2ccc(-c3ccc(N[C@@H](C)c4ccc(F)cc4)nc3)cc2N(C)C)cn1 gave a pIC50 (Gamma-secretase [1]) of 4.3 and a pIC50 (Gamma-secretase [2]) of 4.4.
Molecule COc1cc(-c2ccc(N[C@@H](C)c3ccc(F)cc3)nc2)ccc1-c1ccnc(C)c1 has a pIC50 (Gamma-secretase [1]) of 6.3, a pIC50 (Gamma-secretase [2]) of 5.2 and an IC50 [3] of 6.31 µM.
Molecule Cc1cn(-c2ccc(-c3ccc(N[C@@H](C)c4ccc(F)cc4)nc3)cc2Cl)cn1 has a pIC50 (Gamma-secretase [1]) of 6.4 and a pIC50 (Gamma-secretase [2]) of 5.7.
COc1cc(-c2cnc(N[C@@H](C)c3ccc(F)cc3)s2)ccc1-n1cnc(C)c1 gave a pIC50 (Gamma-secretase [1]) of 6.1 and a pIC50 (Gamma-secretase [2]) of 4.3.
With COc1cc(-c2ccc(N[C@@H](C)c3ccc(F)cc3)nc2)ccc1-c1ccnnc1 the pIC50 (Gamma-secretase [1]) was 6.4, the pIC50 (Gamma-secretase [2]) was 5.7 and the IC50 [3] was 12.6 µM.
COc1cc(-c2ncc(N[C@@H](C)c3ccc(F)cc3)cn2)ccc1-n1cnc(C)c1 gave a pIC50 (Gamma-secretase [1]) of 6.6, a pIC50 (Gamma-secretase [2]) of 5.9 and an IC50 [3] of 10 µM.
Molecule COc1cc(-c2noc(N[C@@H](C)c3ccc(F)cc3)n2)ccc1-n1cnc(C)c1 has a pIC50 (Gamma-secretase [1]) of 6.5 and a pIC50 (Gamma-secretase [2]) of 4.5.
For COc1cc(-c2cc(C)c(N[C@@H](C)c3ccc(F)cc3)nn2)ccc1-n1cnc(C)c1, the Activity (Rattus norvegicus [5]) was 45.7%, the concentration at 6 h [6] was 10.4 µM and the Activity (Rattus norvegicus [7]) was “Non-toxic”. The Activity (Rattus norvegicus [8]) was “Non-toxic” and the Activity (Rattus norvegicus [9]) was “Non-toxic”.
CCOc1cc(-c2ccc(N[C@@H](C)c3ccc(F)cc3)nc2)ccc1-n1cnc(C)c1 showed a pIC50 (Gamma-secretase [1]) of 6.3 and a pIC50 (Gamma-secretase [2]) of 5.3.
COc1cc(-c2ccc(N[C@@H](C)c3ccc(F)cc3)nc2)ccc1-c1cc(C)ns1 showed a pIC50 (Gamma-secretase [1]) of 6.6, a pIC50 (Gamma-secretase [2]) of 5.7 and an IC50 [3] of 15.8 µM.
In the case of Cc1cn(-c2ccc(-c3ccc(N[C@@H](C)c4ccc(F)cc4)nc3)cc2C)cn1, the pIC50 (Gamma-secretase [1]) is reported as 5.2 and the pIC50 (Gamma-secretase [2]) is reported as 4.8.
Molecule COc1cc(-c2ccc(N[C@@H](C)c3ccc(F)cc3)cn2)ccc1-n1cnc(C)c1 has a pIC50 (Gamma-secretase [1]) of 6.2, a pIC50 (Gamma-secretase [2]) of 5 and an IC50 [3] of 6.31 µM.
Work on COc1cc(-c2ccc(N[C@@H](C)c3ccc(F)cc3)nc2)ccc1-c1sc(C)nc1C yielded a pIC50 (Gamma-secretase [1]) of 6.4, a pIC50 (Gamma-secretase [2]) of 5.3 and an IC50 [3] of 10 µM.
COc1cc(-c2ccc(N[C@@H](C)c3ccc(F)cc3)nc2)ccc1-n1cnc(C)c1.Cl gave a clearance [13] of 12.2 mL/min/kg, a Vd [14] of 3.7 L/kg and a half-life [15] of 3.3 h. It also gave a bioavailability [16] of 100%.
